The values below come from PubChem BioAssay AID485351 (Sanford-Burnham Center for Chemical Genomics, 2010).

Structures are written as SMILES. Several values for one entry are separate records, joined by “and”; a condition that tells them apart may be missing. Equal values may be shown once. Activity calls are given as the source filed them. How the calls were made is not given here.

The target in the experiment is Ubiquitin-conjugating enzyme E2 N (Homo sapiens) (UniProt P61088). The experiment is described as follows: Ubc13/Uev1a ubiquitination inhibitors, SAR follow-up, biochemical, TR-FRET, set 2 (AID 485351). The conditions noted are these: in vitro Ubc13-Uev1a ubiquitination. A general note: In TR-FRET formats the signal depends on donor and acceptor labels being close together.
Sequence of Ubiquitin-conjugating enzyme E2 N (Homo sapiens) (P61088 whole entry, looked up): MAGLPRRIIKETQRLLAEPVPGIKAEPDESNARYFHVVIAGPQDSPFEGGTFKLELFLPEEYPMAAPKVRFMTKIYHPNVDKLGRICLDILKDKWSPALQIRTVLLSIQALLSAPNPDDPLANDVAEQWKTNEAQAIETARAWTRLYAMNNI

Take `COCCNC(=O)c1c(NC(=O)c2ccccc2)n(Cc2ccccc2)c2nc3ccccc3nc12`: the IC50 was 0.656 µM. With `C=CC[C@@H](Nc1ccc(Cl)cc1)C12C=CC(O1)C(C(=O)OC)=C2C(=O)OC` (some centres undefined), the IC50 was > 100 µM (inactive). Turning to `COc1ccc2c(c1)C(NC(C)=O)C(=O)N2CCc1ccccc1` (centres undefined), the IC50 is > 100 µM (inactive).

On to `CCCCCn1c(NC(=O)c2ccco2)c(C(=O)OCC)c2nc3ccccc3nc21`, for which the IC50 is 0.501 µM.

Regarding `Cc1cc(C)c2c(c1)C(=O)C(=O)N2CCN1CCOCC1`, the IC50 was > 100 µM (inactive). With `C=CCC(Nc1ccccc1)C12C=CC(O1)C(C(=O)OC)=C2C(=O)OC` (centres undefined), the IC50 is > 100 µM (inactive).

For the compound `CCCCn1c(NC(=O)c2ccc(Cl)cc2)c(C#N)c2nc3ccccc3nc21`, the IC50 is 0.859 µM.

For `CCCN1C(=O)C(NC(C)=O)c2cc(OC)ccc21` (centres undefined), the IC50 was > 100 µM (inactive). Next, `COC(=O)C1=C(C(=O)OC)C2([C@@H](Cc3ccccc3)Nc3ccc(OC)cc3)C=CC1O2` (some centres undefined): > 100 µM (inactive); `C=CC[C@H](Nc1ccccc1)C12C=CC(O1)C(C(=O)OC)=C2C(=O)OC` (some centres undefined): > 100 µM (inactive); `COC(=O)C=C(NC(CO)(CO)CO)C(=O)OC`: 87.2 µM.

On to `CCCC1=NN(c2ccc(C(=O)O)cc2)C(=O)/C1=C/c1ccc(O)cc1`, for which the IC50 is > 100 µM (inactive). Next, `C=CC[C@H](Nc1ccc(C)cc1)C12C=CC(O1)C(C(=O)OC)=C2C(=O)OC` (some centres undefined): > 100 µM (inactive); `C=C[C@@H](Nc1ccccc1)C12C=CC(O1)C(C(=O)OC)=C2C(=O)OC` (some centres undefined): > 100 µM (inactive); `COC(=O)C1=C(C(=O)OC)C2(C(Cc3ccc(F)cc3)Nc3ccccc3)C=CC1O2` (centres undefined): > 100 µM (inactive).

On to `CCCCNC(=O)c1c(NC(=O)c2ccccc2)n(Cc2ccccc2)c2nc3ccccc3nc12`, for which the IC50 was 18.8 µM. Next, `CC(=O)NC1C(=O)N(CCN2CCOCC2)c2ccc(C)cc21` (centres undefined): > 100 µM (inactive); `CCCCn1c(NC(=O)c2cccc(Cl)c2)c(C#N)c2nc3ccccc3nc21`: 1.34 µM; `COc1ccc2c(c1)C(NC(C)=O)C(=O)N2CC1COc2ccccc2O1` (centres undefined): > 100 µM (inactive). On to `COC(=O)[C@@H]1C2CCC([C@@H](Cc3ccccc3)Nc3ccccc3)(O2)[C@@H]1C(=O)OC` (some centres undefined), for which the IC50 was > 100 µM (inactive). Turning to `COC(=O)C1=C(C(=O)OC)C2([C@H](Cc3ccccc3)Nc3ccc(Cl)cc3)C=CC1O2` (some centres undefined), the IC50 was > 100 µM (inactive). With `COC(=O)C1=C(C(=O)OC)C2([C@H](Cc3ccccc3)Nc3ccc(OC)cc3)C=CC1O2` (some centres undefined), the IC50 is > 100 µM (inactive). Then `COC(=O)C1=C(C(=O)OC)C2([C@@H](C)Nc3ccc(OC)cc3)C=CC1O2` (some centres undefined), with > 100 µM (inactive); and `COC(=O)C1=C(C(=O)OC)C2([C@H](Cc3ccccc3)Nc3ccccc3)C=CC1O2` (some centres undefined), with > 100 µM (inactive). In the case of `C=C[C@H](Nc1ccccc1)C12C=CC(O1)C(C(=O)OC)=C2C(=O)OC` (some centres undefined), the IC50 is 51.5 µM. For the compound `CCC(=O)Nc1c(S(=O)(=O)c2ccccc2)c2nc3ccccc3nc2n1Cc1ccccc1`, the IC50 is 0.755 µM. Then `C=CC[C@H](Nc1ccc(OC)cc1)C12C=CC(O1)C(C(=O)OC)=C2C(=O)OC` (some centres undefined), with > 100 µM (inactive); and `COC(=O)C1=C(C(=O)OC)C2([C@@H](C)Nc3ccccc3)C=CC1O2` (some centres undefined), with > 100 µM (inactive). Then `CCCCn1c(NC(=O)c2ccccc2Cl)c(S(=O)(=O)c2ccccc2)c2nc3ccccc3nc21`, with 1.68 µM. Then `CCCCn1c(NC(=O)c2ccco2)c(C#N)c2nc3ccccc3nc21`, with 0.777 µM; and `COc1cc(/C=C2\C(=O)N(c3ccccc3)N=C2C)ccc1OC(=O)c1cccs1`, with > 100 µM (inactive); and `CCCCn1c(NC(=O)c2ccccc2)c(C#N)c2nc3ccccc3nc21`, with 1.2 µM and 1 µM. Take `c1ccc(CC(Nc2ccccc2)c2ccco2)cc1` (centres undefined): the IC50 is > 100 µM (inactive).

Turning to `C=CC[C@H](N(Cc1ccccc1)/C(=C\C(=O)OC)C(=O)OC)C12C=CC(O1)C(C(=O)OC)=C2C(=O)OC` (some centres undefined), the IC50 was > 100 µM (inactive). Next, `CCC[C@@H](Nc1ccccc1)C12C=CC(O1)C(C(=O)OC)=C2C(=O)OC` (some centres undefined): > 100 µM (inactive); `COc1ccc2c(c1)C(=O)C(=O)N2CCN1CCOCC1`: > 100 µM (inactive). Regarding `COc1ccc(CN2C(=O)C(NC(C)=O)c3ccccc32)cc1` (centres undefined), the IC50 was > 100 µM (inactive). Then `C=CC[C@@H](N(Cc1ccccc1)/C(=C\C(=O)OC)C(=O)OC)C12C=CC(O1)C(C(=O)OC)=C2C(=O)OC` (some centres undefined), with > 100 µM (inactive); and `CCCCn1c(NC(=O)C2CCCCC2)c(C#N)c2nc3ccccc3nc21`, with 0.499 µM. For `COc1cc(/C=C2\C(=O)N(c3ccccc3)N=C2C)ccc1O`, the IC50 was > 100 µM (inactive).

For the compound `CCC[C@H](Nc1ccccc1)C12C=CC(O1)C(C(=O)OC)=C2C(=O)OC` (some centres undefined), the IC50 is > 100 µM (inactive).

`CCCC1=NN(c2ccc(C(=O)O)cc2)C(=O)/C1=C/c1ccc(OCc2ccccc2)cc1`: the IC50 was > 100 µM (inactive). Then `Nc1c(C(=O)NCc2ccco2)c2nc3ccccc3nc2n1Cc1ccccc1`, with 0.815 µM; and `C=CC[C@@H](Nc1ccc(C)cc1)C12C=CC(O1)C(C(=O)OC)=C2C(=O)OC` (some centres undefined), with > 100 µM (inactive).

As for `CCCCn1c(NC(=O)c2ccc(F)cc2)c(S(=O)(=O)c2ccc(C)cc2)c2nc3ccccc3nc21`, the IC50 is 1.32 µM. With `CCCCn1c(NC(C)=O)c(C#N)c2nc3ccccc3nc21`, the IC50 is 0.669 µM.

For `COC(=O)C1=C(C(=O)OC)C2([C@H](Cc3ccccc3)Nc3ccc(C)cc3)C=CC1O2` (some centres undefined), the IC50 was > 100 µM (inactive). As to `CCCCn1c(NC(=O)c2ccccc2)c(S(=O)(=O)c2ccc(C)cc2)c2nc3ccccc3nc21`, the IC50 was 1.95 µM and 1.1 µM.

Consider `CCCCn1c(N)c(S(=O)(=O)c2ccc(C)cc2)c2nc3ccccc3nc21`, for which the IC50 was 2.08 µM and 0.875 µM.

In the case of `COC(=O)C1=C(C(=O)O)C2C=CC1([C@@H](Cc1ccccc1)Nc1ccccc1)O2` (some centres undefined), the IC50 is > 100 µM (inactive). Then `N#Cc1c(NC(=O)c2ccccc2Cl)n(Cc2ccccc2)c2nc3ccccc3nc12`, with 2.78 µM; and `COC(=O)C1=C(C(=O)OC)C2([C@@H](Cc3ccccc3)Nc3ccccc3)C=CC1O2` (some centres undefined), with > 100 µM (inactive).

Consider `COC(=O)C1=C(C(=O)OC)C2([C@@H](Cc3ccc(OC)cc3)Nc3ccccc3)C=CC1O2` (some centres undefined), for which the IC50 is > 100 µM (inactive). Then `CCCCn1c(NC(=O)CC)c(S(=O)(=O)c2ccc(C)cc2)c2nc3ccccc3nc21`, with 0.742 µM; and `COc1cc(/C=C2\C(=O)N(c3ccccc3)N=C2C)ccc1OCc1ccccc1`, with > 100 µM (inactive). Next, `C=CC[C@H](Nc1ccc(Cl)cc1)C12C=CC(O1)C(C(=O)OC)=C2C(=O)OC` (some centres undefined): > 100 µM (inactive).

Consider `C=CC[C@@H](Nc1ccccc1)C12C=CC(O1)C(C(=O)OC)=C2C(=O)OC` (some centres undefined), for which the IC50 was > 100 µM (inactive). Next, `CCCCn1c(NC(=O)c2ccc(F)cc2)c(C#N)c2nc3ccccc3nc21`: 1.16 µM; `CCCC1=NN(c2ccc(C(=O)O)cc2)C(=O)/C1=C/c1ccc(OCc2ccccc2)c(OC)c1`: > 100 µM (inactive); `N#Cc1c(NC(=O)c2ccccc2Cl)n(C2CCCCC2)c2nc3ccccc3nc12`: 2.84 µM.

As for `COC(=O)C1=C(C(=O)OC)C2([C@@H](C)Nc3ccc(C)cc3)C=CC1O2` (some centres undefined), the IC50 was > 100 µM (inactive).

For the compound `COC(=O)C1=C(C(=O)OC)C2([C@@H](C)Nc3ccc(Cl)cc3)C=CC1O2` (some centres undefined), the IC50 is > 100 µM (inactive). Then `COC(=O)C1=C(C(=O)OC)C2([C@H](C)Nc3ccc(Cl)cc3)C=CC1O2` (some centres undefined), with 53 µM; and `COCCn1c(NC(=O)c2ccc(Cl)cc2)c(S(=O)(=O)c2ccc(C)cc2)c2nc3ccccc3nc21`, with 1.74 µM; and `COC(=O)C1=C(C(=O)OC)C2([C@@H](Cc3ccccc3)Nc3ccc(Cl)cc3)C=CC1O2` (some centres undefined), with > 100 µM (inactive).

For the compound `CCCCn1c(NC(=O)c2ccco2)c(S(=O)(=O)c2ccc(C)cc2)c2nc3ccccc3nc21`, the IC50 is 0.809 µM. As to `COc1ccc2c(c1)C(NC(C)=O)C(=O)N2CCOc1ccccc1` (centres undefined), the IC50 is > 100 µM (inactive).

With `CCCCn1c(NC(=O)c2ccc(OC)cc2)c(S(=O)(=O)c2ccc(C)cc2)c2nc3ccccc3nc21`, the IC50 was 0.752 µM.

`COC(=O)C1=C(C(=O)OC)C2([C@@H](Cc3ccccc3)Nc3ccc(C)cc3)C=CC1O2` (some centres undefined): the IC50 is > 100 µM (inactive). Then `COC(=O)C1=C(C(=O)OC)C2([C@@H](Cc3ccc(C)cc3)Nc3ccccc3)C=CC1O2` (some centres undefined), with > 100 µM (inactive); and `COC(=O)C1=C(C(=O)OC)C2([C@H](Cc3ccc(C)cc3)Nc3ccccc3)C=CC1O2` (some centres undefined), with > 100 µM (inactive). Then `C=CC[C@@H](Nc1ccc(OC)cc1)C12C=CC(O1)C(C(=O)OC)=C2C(=O)OC` (some centres undefined), with 78.9 µM; and `C=CCn1c(NC(=O)c2ccccc2Cl)c(C#N)c2nc3ccccc3nc21`, with 1.11 µM; and `CCCCn1c(NS(=O)(=O)c2ccccc2)c(S(=O)(=O)c2ccc(C)cc2)c2nc3ccccc3nc21`, with 0.741 µM. Then `CCCC1=NN(c2ccccc2)C(=O)/C1=C\c1ccc(O)cc1`, with > 100 µM (inactive); and `CCCCn1c(NC(=O)c2ccccc2Cl)c(C#N)c2nc3ccccc3nc21`, with 0.697 µM and 1.01 µM; and `COC(=O)C1=C(C(=O)OC)C2([C@H](C)Nc3ccccc3)C=CC1O2` (some centres undefined), with 80.2 µM. As to `CCCC1=NN(c2ccccc2)C(=O)/C1=C/c1ccc(OCc2ccc(C(=O)OC)cc2)cc1`, the IC50 is > 100 µM (inactive). Then `C=CCn1c(NS(=O)(=O)c2ccccc2)c(S(=O)(=O)c2ccc(C)cc2)c2nc3ccccc3nc21`, with 0.769 µM.

The term IC50 denotes the concentration that gives 50% inhibition.
